Data published in patent US20200206187A1, “SCREENING PLATFORM TO IDENTIFY THERAPEUTIC DRUGS OR AGENTS FOR TREATMENT OF ALZHEIMER'S DISEASE” (priority 2017, published 2020).
Entries after “also recorded” stand apart in the source; their conditions may differ.

Key:
Type in all cases: cell-based, murine
[1] = test system: naïve BV2 microglial cells; assay: Abeta40 uptake assay into naïve BV2 microglial cells (Cisbio Abeta40 HTRF); details: naïve BV2, 3 h pre-treatment, 300 nM Abeta40 for 2 h (FIG. 5)
Method: (§1) As shown in the figures, compounds were selected and tested in microglial and 3D AD cell culture models at a range of concentrations, and over a period of time ranging from hours to days. The culture models were chosen to elucidate different stages and biological aspects of Alzheimer's disease. The toxicity of the compounds was assessed analyzing the cultures media with the commercially available assay (CytoTox-ONE™, Promega) that measures the release of LDH. Toxic concentrations were excluded from further testing. For microglial cultures, Aβ42 and Aβ40 uptake assays were carried forward for 2 to 24 hours following 3 hours of compound pre-treatment. The experimental outcomes were determined by measuring increased internalized Aβ42 and Aβ40 levels by a commercially available ELISA assay (Wako Abeta42 ELISA kit). Alternatively, LPS-activation assays were carried forward for 3 h following 3 hours of compound pre-treatment. The reduction of toxic cytokines released in the culture media was monitored.
(§2) Naïve BV2 Cells, or BV2 stably expressing wt-CD33, were seeded in 24-well plates at the density of 2.5×10E5 cells for BV2 and 4×10E5 cells for wt-CD33 clone, in proliferating media. […] Protein concentrations in the lysate supernatants were determined with the Pierce™ BCA protein assay kit. 2-3 μg/well of protein from the lysates was analyzed for Abeta42 uptake using the Wako Abeta42 ELISA kit. […]

[2] = test system: wtCD33-expressing microglial cells; assay: LDH toxicity assay (CytoTox-ONE) on wtCD33-expressing microglial cells; details: 5 hours of treatment (FIG. 2)
Method: as §1
(§3) Naïve BV2 Cells, or BV2 stably expressing wt-CD33, were seeded in 24-well plates at the density of 2.5×10E5 cells for BV2 and 4×10E5 cells for wt-CD33 clone, in proliferating media. On the following day, cells were treated with compounds, or DMSO as a control, at different concentrations in proliferating media for 3 hours. For Abeta42 and Abeta40 uptake assays, cells were washed twice with 500 μL/well of PBS and treated with compounds/DMSO in the presence of 300 nM Abeta peptide in DMEM media for 2 hours. At the end of the 2 hour incubation, 150 μL of media were collected from the 24-well plates. They were centrifuged at 4° C., 2500 rpm for 10 min, transferred to new plates and used to assess compounds toxicity with CytoTox-ONE™ (LDH) assay. […] Protein concentrations in the lysate supernatants were determined with the Pierce™ BCA protein assay kit. 2-3 μg/well of protein from the lysates was analyzed for Abeta42 uptake using the Wako Abeta42 ELISA kit. […]

[3] = test system: wt-CD33 expressing BV2 cells; assay: Abeta40 uptake assay into wt-CD33 expressing BV2 cells (Cisbio Abeta40 HTRF); details: wt-CD33 expressing BV2, 3 h pre-treatment, 300 nM Abeta40 for 2 h (FIG. 6)
Method: as §1, §2

[4] = test system: wt-CD33 expressing BV2 cells; assay: Abeta42 uptake assay into wt-CD33 expressing BV2 cells (Wako Abeta42 ELISA); details: wt-CD33 expressing BV2, 3 h pre-treatment, 300 nM Abeta42 for 2 h (FIG. 4)
Method: as §1, §2

[5] = test system: naïve BV2 microglial cells; assay: Abeta42 uptake assay into naïve BV2 microglial cells (Wako Abeta42 ELISA); details: naïve BV2, 3 h pre-treatment, 300 nM Abeta42 for 2 h (FIG. 3)
Method: as §1, §2

[6] = test system: naïve BV2 microglial cells; assay: LDH toxicity assay (CytoTox-ONE) on naïve BV2 microglial cells; details: 5 hours of treatment (FIG. 1)
Method: as §1, §3

[7] = test system: naïve BV2 microglial cells; assay: Abeta42 uptake assay in microglial cells, 24-hour pre-treatment protocol
Method: (§4) The protocol used for 24-hour pre-treatment testing in microglial cells was as follows.
(§5) On day zero the naïve BV2 microglial cells were seeded in proliferating media.
(§6) On day one the cells were then treated with 817MA, or DMSO as a control, in proliferating media for 24 hours, at concentrations ranging from 0 to 50 μM.
(§7) On day two the cells were then washed twice with PBS and treated with compounds/DMSO in the presence of 300 nM Abeta42 peptide in DMEM media for 2 hours. The compounds toxicity was assessed in the media collected at the end of the treatment with CytoTox-ONE™ (LDH) assay. The remaining cells were lysed with RIPA buffer supplemented with protease and phosphatase inhibitors. Protein concentrations were determined with the Pierce™ BCA protein assay kit. Normalized lysates were analyzed for Abeta42 uptake using the Wako Abeta42 ELISA kit.

[8] = test system: LPS-activated BV2 microglial cells; assay: BV2 LPS activation cytokine assay (MSD Proinflammatory Panel 1); details: BV2, 1 μg/mL LPS 3 h, maleate
Method: as §1
For microglial activation experiments, cells were treated with compounds/DMSO in the presence of 1 μg/mL LPS in proliferating media for 3 hours. The media was collected, cleared of particulate and analyzed using MSD Proinflammatory Panel 1 cytokine assay kit.
FIG. 7 tabulates the results from an LPS activation testing of microglial cells, showing that cytokines KC/GRO, IL-6, IL-10 and TNF-α were detectable upon LPS activation, although KC/GRO was only detectable in undiluted media. The 10 cytokines were simultaneously analyzed in microglial conditioned media. FIG. 8-15 show the results for an assay to test the effect of test compounds DMSO, 817MA, 817A11 and 614P on cytokines KC/GRO, IL-6, IL-10 and TNF-α. […] The two sequential assays determine which if any cytokines are detected upon LPS activation, followed by determination of the reduction in detectable cytokines upon treatment/exposure to a test compound.

[9] = test system: naïve BV2 microglial cells; assay: LDH toxicity assay in microglial cells, 24-hour pre-treatment protocol; details: 24 h pre-treatment (FIG. 25)
Method: as §4, §5, §6, §7

Row | SMILES | Abeta40 uptake EC50 (comparison between compounds) [1] | LDH toxicity [2] | Abeta40 uptake EC50 (comparison between compounds) [3] | Abeta42 uptake EC50 (comparison between compounds) [4] | Abeta42 uptake EC50 (comparison between compounds) [5] | LDH toxicity [6] | EC50 ([7]; Mus musculus, BV-2, following 24 hours of compound pre-treatment (FIG. 26)) | Abeta42 uptake versus DMSO control ([7]; above about 1 μM, 24 h pre-treatment (FIG. 26)) | TNFα production upon LPS activation ([8]; first and second experiment (FIG. 8, 9)) | IL-6 production upon LPS activation ([8]; first and second experiment (FIG. 10, 11)) | IL-10 production upon LPS activation ([8]; first and second experiment (FIG. 12, 13)) | LDH toxicity compared to DMSO ([9]; at about 30 μM) | LDH toxicity ([9]; below about 50 μM)
1 | CS(=O)(=O)Nc1cc2occ(NC=O)c(=O)c2cc1Oc1ccccc1 [Compound 614P, N-(3-formamido-4-oxo-6-phenoxy-4H-chromen-7-yl)] | higher EC50 than both 817MA and 817A11 | No statistically significant toxicity | higher EC50 than both 817MA and 817A11 | higher EC50 | higher EC50 | No statistically significant toxicity |  |  |  |  |  |  | 
2 | O=C(CCOCCc1ccc2sccc2c1)N1CC(O)C1 [Compound 817A11, 1-{3-[2-(1-benzothiophen-5-yl)ethoxy]propionyl}azetidin-3-ol] | lower EC50 Abeta40 uptake than 817MA treated cells | No statistically significant toxicity | lower EC50 Abeta40 uptake than 817MA treated cells |  |  | No statistically significant toxicity |  |  |  |  |  |  | 
3 | O=C(O)/C=C\C(=O)O.OC1CN(CCCOCCc2ccc3sccc3c2)C1 [Compound 817MA, 1-(3-(2-(1-benzothiophen-5-yl)ethoxy)propyl)azetidin-3-ol maleate] |  | No statistically significant toxicity |  |  |  | No statistically significant toxicity | ~20 µM | greater than the DMSO control | reduced concentrations; also recorded: only compound effectively reducing TNFα production | reduced concentrations; also recorded: most effective compound for reducing IL-6 production | reduced concentrations; also recorded: most effective compound for reducing IL-10 production | no statistically significant toxicity | low or no toxicity
